Measurements from patent US20040121474A1, “Detection and evaluation of chemically-mediated and ligand-mediated t-cell activation using optophoretic analysis” (Genoptix, Inc, priority 2002, published 2004).
In brackets after ≈: the same amount, converted by molar mass.

How the values were obtained:
Type in all cases: cell-based
[1] = tested on: U937 cells; test: Escape velocity, time and concentration dependence of PMA; parameters: Escape velocity Ave.: unit not given here
Procedure: This experiment was conducted to test the effect of PMA concentration on the escape velocity of U937 cells. PMA concentrations of 10 ng/ml, 1 ng/ml, 100 pg/ml, 10 pg/ml and 1 pg/ml were tested. The control sample received EtOH and not PMA.
The PMA concentration was tested at three timepoints: 1 hour, 3 hours and 5 hours. At each timepoint, 300 μl of cells were removed from each flask. The cells were then spun for 5 minutes at 5000 rpm. The cells were then resuspended in […] PBS/1% BSA and […] of trypan blue.

[2] = tested on: U937 cells; test: Escape velocity, PMA inhibition by bisindolymaleimide; details: 10 ng/ml PMA only, four hours
From the text: The objective of this experiment was to test the effect of bisindolymaleimide on cells exposed to PMA. Bisindolymaleimide is a Protein Kinase C inhibitor and should block the effect of PMA on U937 cells and their escape velocities. As shown in this and prior experiments, exposure of U937 cells to PMA results in an increase in the escape velocity of the cells. Therefore, it is anticipated that addition of bisindolymaleimide will reduce or eliminate the increase in escape velocity caused by PMA. This has in fact been observed in the data shown below.
Bisindolymaleimide was tested at two concentrations: 200 ng/ml and 50 ng/ml. Samples not treated with bisindolymaleimide received an equivalent amount of the carrier, MeOH, as a control. […] The concentration of PMA tested was 10 ng/ml. Samples not receiving PMA received DMSO.
Once the flasks were prepared, they were incubated at 37° C. 5% CO2 for four hours. At the four hour timepoint, 300 μl of cells were removed from each flask and pelleted at 5000 rpm for 5 minutes. The cells were then resuspended in 6 ml PBS/1% BSA and 60 μl trypan blue.

[3] = tested on: U937 cells; test: Quantitative determination of PKC activation, escape velocity dose response; details: five hours
Procedure: Optophoretic analysis was used to develop a full dose response curve for U937 cells treated with PMA. U937 cells were incubated with varying amounts of PMA dissolved in DMSO. The following concentrations of PMA were tested: 0.156 ng/ml, 0.312 ng/ml, 0.625 ng/ml, 1.25 ng/ml, 2.5 ng/ml, 5 ng/ml, and no PMA (control). […] Escape velocity measurements were then taken using a 100 mW laser having a beam diameter of 28 pixels. Table 9 reproduced below sets forth the measured escape velocities (μm/sec) for each of the various PMA concentrations.
The method described above may be used to quantitatively determine the level of PKC activation in cells in response to exposure to PKC activating compound using a moving optical gradient. The method includes the steps of first providing a series of cell samples and exposing the series of cell samples to different concentrations of the PKC activating compound. After a period of incubation from about one to several hours, the cells and the optical gradient are moved relative to each other so as to cause displacement of at least some of the cells. Next, the displacement of at least a portion of the displaced cells is measured for each of the different concentrations. […] From the dose response curve, one is able to calculate one or more numerical values that correlate to PKC potency and/or efficacy. For example, the dose response curve can be used to calculate the EC50, Hill slope, or plateau value relative to a standard compound.

[4] = tested on: HL-60 cells; test: Escape velocity, differentiation of HL-60 cells; details: 200 ng/ml PMA
Procedure: Initial tests were performed using HL-60 cells treated with PMA. HL-60 cells were seeded at about 1-3×10^6 cells per well in six well plates. The cells were treated with 200 ng/ml PMA while the control cells were treated with ethanol (EtOH) vehicle for four hours at 37° C. After incubation for four hours the treated cells were washed with PBS and re-fed with growth media. The treated HL-60 cells were then allowed to differentiate for 72 hours in normal growth media. After the 72 hour period, the untreated control cells were collected by centrifugation, washed with PBS and pelleted for resuspension at 1.5×10^6 cells/ml in PBS/1% BSA. Treated cells were trypsinized and collected by centrifugation then washed in PBS and pelleted for resuspension at 1×10^6 cells/ml in PBS/1% BSA. The cells were then subjected to Optophoretic analysis by measuring the escape velocities of the treated and control cells. Table 23 shown below illustrates the measured escape velocities of the undifferentiated and differentiated cells at 72 hours post treatment.

[5] = tested on: HL-60 cells; test: Fast scan analysis, differentiation of HL-60 cells; details: 400 ng/ml PMA, differentiation into monocytes/macrophages
Procedure: Fast scan analysis was also performed on HL-60 cells that were treated with PMA and DMSO. A time course evaluation of PMA treated HL-60 cells was performed with fast scan data taken at 16 hours, 24 hours, 40 hours, and 72 hours post-treatment with 400 ng/ml PMA. A control sample of HL-60 cells was also tested using EtOH as the vehicle for purposes of comparing the differentiated cells with the undifferentiated HL-60 cells. The PMA-treated and control cells were harvested and trypsinized. The samples were then resuspended in PBS/1% BSA. A set of samples was also obtained and left as pellets at 4° C. for subsequent FACS analysis.
A time course evaluation of DMSO treated HL-60 cells was performed with fast scan data taken at 16 hours, 24 hours, 40 hours, and 70 hours post-treatment with 1% DMSO. A control sample of HL-60 cells was also tested for purposes of comparing the differentiated cells with the undifferentiated HL-60 cells. The DMSO-treated and control cells were then harvested and resuspended in PBS/1% BSA. A set of samples was also obtained and left as pellets at 4° C. for subsequent FACS analysis.

CCCCCCCCCCCCCC(=O)O[C@@H]1[C@@H](C)[C@@]2(O)[C@@H](C=C(CO)C[C@]3(O)C(=O)C(C)=C[C@@H]23)[C@@H]2C(C)(C)[C@]12OC(C)=O [PMA, phorbol 12 myristate 13-acetate]
Escape velocity Ave. ([1]; 10 pg/ml PMA, 1 Hour Activation): 14.4 | Escape velocity Ave. ([1]; 10 pg/ml PMA, 3 Hour Activation): 14.5 | Escape velocity Ave. ([1]; 10 pg/ml PMA, 5 Hour Activation): 14.1 | Escape velocity Ave. ([1]; 100 pg/ml PMA, 1 Hour Activation): 14.4 | Escape velocity Ave. ([1]; 100 pg/ml PMA, 3 Hour Activation): 15.5 | Escape velocity Ave. ([1]; 100 pg/ml PMA, 5 Hour Activation): 16.1 | Escape velocity Ave. ([1]; 1 ng/ml PMA, 1 Hour Activation): 14.3 | Escape velocity Ave. ([1]; 1 ng/ml PMA, 3 Hour Activation): 15.1 | Escape velocity Ave. ([1]; 1 ng/ml PMA, 5 Hour Activation): 16.5 | Escape velocity Ave. ([1]; 10 ng/ml PMA, 1 Hour Activation): 14.8 | Escape velocity Ave. ([1]; 10 ng/ml PMA, 3 Hour Activation): 15.2 | Escape velocity Ave. ([1]; 10 ng/ml PMA, 5 Hour Activation): 16.2 | Optophoretic difference (escape velocity) ([1]; two lowest concentrations, 10 pg/ml and 1 pg/ml): no Optophoretic difference | Escape velocity Ave. [2]: 15.4 μm/sec | Escape velocity Average ([3]; 1.25 ng/ml PMA): 17.0 μm/sec | Escape velocity Average ([3]; 2.5 ng/ml PMA): 17.0 μm/sec | Escape velocity Average ([3]; 5 ng/ml PMA): 17.3 μm/sec | Escape velocity Average ([3]; .156 ng/ml PMA): 15.8 μm/sec | Escape velocity Average ([3]; .312 ng/ml PMA): 16.0 μm/sec | Escape velocity Average ([3]; .625 ng/ml PMA): 16.6 μm/sec | EC50 ([3]; Homo sapiens, U-937, 5 h, escape velocity, U937 cells, read-out: EC50 value of the PMA dose response curve (FIG. 53)): ~0.625 ng/mL (≈ 1.01 nM) | PMA concentrations at which a significant shift in escape velocity is seen ([3]; U937 cells): exceeding 0.625 ng/ml | Escape velocity Average ([4]; HL-60 + PMA at 72 hours (differentiated), control 11.9): 14.0 μm/sec | increase in measured escape velocity as compared to the control cells ([4]; HL-60 cells, 72 hours): about 2 μm/se c | time after treatment at which Optophoretic analysis detected cellular differentiation [5]: ≤ 16 h
